# Literature values, collected in patent US20210009750A1, “3D PRINTING COMPOSITION FOR BIOMATERIALS” (TISSIUM SA, priority 2018, published 2021).
# Test system: mammalian cell types
# Conditions: broad range of mammalian cell types and species
compound,measurement,value
"CC(C)(O)C(=O)c1ccc(OCCO)cc1 [Irgacure 2959, 2-hydroxy-1-[4-(hydroxyethoxy)phenyl]-2-methyl-1-propanone]",cytotoxicity (cell death),minimal cytotoxicity
